The values below come from patent publication EP0082023A2, “Thienopyrimidine derivatives, their preparation and their medical use” (SANKYO COMPANY LIMITED, priority 1981, dated 1983).

The test system of one assay is platelet aggregation. In words: Inhibition of collagen-induced platelet aggregation in platelet-rich plasma. It counts as cell-based. The following applies: rabbit PRP, incubated 2 minutes, collagen 5 ug/ml. The method, then:
The ability of various compounds of the present invention to inhibit platelet aggregation was measured using rabbit blood.
9 volumes of blood collected from male rabbit hearts and 1 volume of a 3.8% w/v aqueous solution of sodium citrate were mixed, placed in a centrifugal separator and subjected to centrifugation under 150 G for 15 minutes to give a platelet-rich-plasma (PRP). 250 pl of this PRP were placed in a cuvette and incubated for 2 minutes with a test compound at the concentration shown in Table 2. To the mixture was then added a collagen solution to a final concentration of 5 ug/ml, to induce aggregation. The aggregation was measured using an aggregometer produced by Rikadenki Co. Ltd. The inhibitory rate R' was calculated from the following formula: [formula] in which A' represents the maximum aggregation rate when only a solvent was added and B' represents the maximum aggregation rate when the test compound was added.
For comparison, the experiment was also carried out using as the test compound VK-744, of German Offenlegungsschrift No. 2,200,764, and ICI-154 of U.S. Patent Specification No. 4,146,716.

Assay [1] relates to male mice of the ddY strain. Kind of assay: Hypoglycaemic activity in mice after glucose loading. It counts as in vivo. The following applies: Mus musculus, po, 0.5 h; blood sugar concentration vs positive control group; 10 mg/kg orally, 1.2 g/kg D-glucose orally 10 minutes later, blood collected 30 minutes after D-glucose; groups of 6 mice; read-out: Inhibitory rate, R%. The method, then: In this experiment, the hypoglycaemic activity of various of the compounds of the invention was measured in mice after loading a large quantity of glucose. The test animals were male mice of the ddY strain having a body weight of from 25 to 27 g. Each experiment was carried out on a group of 6 mice.
Each test compound was administered orally in an amount of 10 mg/kg to the mouse followed, 10 minutes later, by the oral administration of 1.2 g/kg of D-glucose. 30 minutes after administration of the D-glucose, blood was collected from each mouse and the blood sugar.concentration was measured using a commercially available kit ("New Blood Sugar Test", a product of Boehringer-Mannheim Yamanouchi Pharmaceutical Co. Ltd,). The inhibitory rate, R, was calculated from the following formula: [formula] in which A represents the blood sugar concentration of a positive control group and B represents the blood sugar concentration of the group to which the test compound was administered. As a control, the experiment was also carried out with: the known hypoglycaemic agent, tolbutamide; 2-(2-aminoethylamino)-4-morpholinothieno[2,3-d]pyrimidine (named "VK-744"), a compound disclosed in German Offenlegungsschrift No. 2,200,764; and 4-isopropylamino-2-piperidinothieno[2,3-d]-pyrimidine (hereinafter referred to as "ICI-154"), a compound disclosed in U.S. Patent Specification No. 4,146,716.

Assay [2] relates to male mice of the ddY strain. In words: Diuretic activity in mice (urine volume and sodium ion concentration). In kind it is in vivo. The following applies: urine collected for 2 hours after administration, increase over control group. The procedure: The animals employed in this test were male mice of the ddY strain, each having a body weight of from 26 g to 30 g. The mice were employed in groups of five for each test. Each test compound was suspended in a 0.3% carboxymethylcellulose saline solution and administered orally in the dose shown in Table 3 to the mouse. For the period of 2 hours after administration, the urine was collected and the urine volume and concentration of sodium ions were measured. […] The compounds tested were Compound No. 3 of the present invention and hydrochlorothiazide (abbreviated as "HCT").

Molecules are shown by their SMILES. Where only a bound is given, the exact number is not on record here.

In the case of `Cc1csc2nc(N3CCNCC3)nc(N)c12` [Compound No. 3, 4-Amino-5-methyl-2-(1-piperazinyl)thieno[2,3-d]-pyrimidine], in the assay with platelet aggregation (concentration 10^-5 g/ml), the “Inhibitory rate, R'%” value turned out to be 82.4%. Besides, the inhibition in vivo at 10 mg/kg in assay [1] turned out to be 32.4%. In addition, in assay [2] (dose 100 mg/kg orally), the “Percent increase in Na^+ conc.” value is “+51%” and the “Percent increase in Urine volume” value is recorded as “+76%”.

In the case of `CCc1cc2c(N)nc(N3CCNCC3)nc2s1` [Compound No. 8, 4-Amino-6-ethyl-2-(1-piperazinyl)thieno[2,3-d]-pyrimidine], the inhibition in vivo at 10 mg/kg in assay [1] is 34%.

Regarding `CNc1nc(N2CCNCC2)nc2scc(C)c12` [Compound No. 16, 5-Methyl-4-methylamino-2-(1-piperazinyl)thieno[2,3-d]-pyrimidine], the inhibition in vivo at 10 mg/kg in assay [1] worked out at 43.9%.

Turning to `CCc1cc2c(NC)nc(N3CCNCC3)nc2s1` [Compound No. 21, 6-Ethyl-4-methylamino-2-(1-piperazinyl)thieno[2,3-d]-pyrimidine], in assay [1], the inhibition in vivo at 10 mg/kg came to 20%.

For the compound `CCc1cc2c(N(CC)CC)nc(N3CCNCC3)nc2s1` [Compound No. 39, 4-Diethylamino-6-ethyl-2-(1-piperazinyl)thieno[2,3-d]-pyrimidine], the inhibition in vivo at 10 mg/kg in assay [1] is 19.4%.

In the case of `CCc1cc2c(NCCO)nc(N3CCNCC3)nc2s1` [Compound No. 54, 6-Ethyl-4-(2-hydroxyethylamino)-2-(1-piperazinyl)-thieno[2,3-d]pyrimidine], the “Inhibitory rate, R'%” value in the assay on platelet aggregation (concentration 10^-6 g/ml) was determined as 66.1%.

As to `CCc1cc2c(NCCN)nc(N3CCNCC3)nc2s1` [Compound No. 66, 4-(2-Aminoethylamino)-6-ethyl-2-(1-piperazinyl)-thieno[2,3-d]pyrimidine], the “Inhibitory rate, R'%” value in the assay with platelet aggregation (concentration 3 x 10^-5 g/ml) was found to be 100%. Besides, the inhibition in vivo at 10 mg/kg in assay [1] was 32.9%.

Consider `CCc1cc2c(N)nc(N3CCN(C)CC3)nc2s1` [Compound No. 73, 4-Amino-6-ethyl-2-(4-methyl-1-piperazinyl)thieno-[2,3-d]pyrimidine], for which the “Inhibitory rate, R'%” value in the assay with platelet aggregation (concentration 3 x 10^-5 g/ml) is recorded as 100%. The inhibition in vivo at 10 mg/kg in assay [1] came to 34.1%.

With `CCc1cc2c(N)nc(N3CCN(C=O)CC3)nc2s1` [Compound No. 84, 4-Amino-6-ethyl-2-(4-formyl-1-piperazinyl)thieno-[2,3-d]pyrimidine], in assay [1], the inhibition in vivo at 10 mg/kg was found to be 39.3%.

As to `CCc1cc2c(NC)nc(N3CCN(C=O)CC3)nc2s1` [Compound No. 99, 6-Ethyl-2-(4-formyl-1-piperazinyl)-4-methylaminothieno-[2,3-d]pyrimidine], the inhibition in vivo at 10 mg/kg in assay [1] is 22.1%.

In the case of `OCCN(CCO)c1nc(N2CCNCC2)nc2sc3c(c12)CCCC3` [Compound No. 197, 4-Bis(2-hydroxyethyl)amino-2-(1-piperazinyl)-5,6-tetramethylenethieno[2,3-d]pyrimidine], the “Inhibitory rate, R'%” value in the assay on platelet aggregation (concentration 10^-5 g/ml) worked out at 87%.

With `NS(=O)(=O)c1cc2c(cc1Cl)NCNS2(=O)=O` [HCT, hydrochlorothiazide, reference compound], in assay [2] (dose 30 mg/kg orally), the “Percent increase in Na^+ conc.” value is given as “+93%” and the “Percent increase in Urine volume” value is “+43%”.

In the case of `CC(C)Nc1nc(N2CCCCC2)nc2sccc12` [ICI-154, 4-isopropylamino-2-piperidinothieno[2,3-d]-pyrimidine, reference compound], the “Inhibitory rate, R'%” value with platelet aggregation (concentration 10^-4 g/ml) is listed as less than 50%. Besides, in assay [1], the inhibition in vivo at 10 mg/kg was determined as 11%.

Take `NCCNc1nc(N2CCOCC2)c2ccsc2n1` [VK-744, 2-(2-aminoethylamino)-4-morpholinothieno[2,3-d]pyrimidine, reference compound]: in assay [1], the inhibition in vivo at 10 mg/kg was determined as 19%.

Regarding `CNc1nc(N2CCNCC2)nc2sccc12` [compound 49, 4-Methylamino-2-(1-piperazinyl)thieno[2,3-d]pyrimidine], the inhibition in vivo at 10 mg/kg in assay [1] was determined as 32%.

Consider `CCc1cc2c(N(CCO)CCO)nc(N3CCNCC3)nc2s1` [compound 62, 4-Bis(2-hydroxyethyl)amino-6-ethyl-2-(1-piperazinyl)-thieno[2,3-d]pyrimidine], for which, in the assay on platelet aggregation (concentration 10^-6 g/ml), the “Inhibitory rate, R'%” value was 65.3%.

Consider `CCCCNC(=O)NS(=O)(=O)c1ccc(C)cc1` [tolbutamide, reference compound], for which, in assay [1], the inhibition in vivo at 10 mg/kg was 2.8%.
